Measurements reported in patent US20250171461A1, “STIMULATOR OF INTERFERON GENES (STING) MODULATORS, AND COMPOSITIONS AND METHODS THEREOF” (Geode Therapeutics Inc., priority 2022, published 2025).

Key:
[1] = biological target: T1, human HAQ STING isoform (hSTING HAQ) (Homo sapiens, UniProt Q86WV6, G230A/H232R/R293Q/R71H); test: IFN-β mRNA level in THP1 cells (qPCR, STING agonist cellular activity); format: cell-based; conditions: compound at 3.6 μM, 2 hrs, IFNβ expression normalized against GAPDH by the 2^-ΔΔCT method, DMSO = 1.0
T1 construct: THP1 cells express the naturally occurring human HAQ STING isoform (hSTING HAQ); host or cells: THP1
Outline: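 THP1 cells were seeded at 9×10^5 per well, incubated overnight, then treated with compound at 3.6 μM final (0.1% DMSO control) for 2 hrs at 37 °C. IFN-β mRNA was measured by SYBR Green qPCR, normalised to GAPDH by the 2^−ΔΔCT method, in triplicate.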

hERG channel = biological target: T2, hERG channel (Homo sapiens, UniProt Q12809); test: hERG safety evaluation, manual whole cell patch clamp in hERG-expressing HEK 293 cells; format: cell-based; conditions: hERG stably expressed HEK 293 cells, tail current, whole cell recording
T2 construct: host or cells: HEK 293
Protocol: (1) hERG stably expressed HEK 293 cell line (#60187) was purchased from BPS Bioscience and P3-P20 were used for the study. Cells were cultured in medium containing: 90% MEM, 10% FBS, 0.1 mM NEAA, 100 U/mL Penicillin-Streptomycin, 1 mM Na pyruvate and 500 μg/mL Geneticin. Cells are split about three times a week, and maintained between ˜40% to ˜80% confluence. 24 to 48 hours prior to recordings, the cells were plated on 0.05 mg/mL PDL pre-coated glass cover slips placed in 48-well plate at 1×10^4 cells. (2) The number of cells being plated on the cover slip should reach a confluence rate at which majority of the cells are single. (1) Test compounds were initially prepared in DMSO with final concentration of 10 mM as stock solution. (2) Compound was first made into 10, 3, 1, 0.3 and 0.1 mM DMSO stock, then serial diluted into the desired test concentrations in the extracellular solution (ECs). 30 uM test solution was diluted from 10 mM DMSO stock. The final DMSO concentration was in range of 0.1-0.3%. HEKA EPC 10 USB patch clamp amplifier (from HEKA Elektronik, Germany) was used in the whole cell recording. A cover slip with plenty of single HEK293 hERG cells on the surface was removed and placed into a continuously perfused (approximately 1 ml/minute) recording chamber mounted on an inverted microscope. HERG channel currents were recorded from single cells using standard whole cell recording techniques. The cells were voltage clamped at a holding potential of −80 mV. Then hERG current was activated by depolarizing at +30 mV for 5000 ms, after which the current was taken back to −50 mV for 5000 ms to remove the inactivation and observe the deactivating tail current. The K+ tail current through HERG channels observed during this step was allowed to stabilize under continuous bath perfusion. Cells were then superfused with drug until steady state block was achieved. Steady state was considered reached when three consecutive super-imposable current records were collected. At this point, cells were once again superfused with extracellular solution until the current amplitude returned to values close to those measured before application of drug. (1) Percent current inhibition was calculated using the following equation. (Note: PatchMaster was used to extract the peak current from the original data.) (2) The dose response curve of test compounds was plotted with % inhibition against the concentration of test compounds using Graphpad Prism 9.0, and fit the data to a log(inhibitor) vs. response—Variable slope curve.

T1 sequence (Q86WV6 whole entry R71H/G230A/H232R/R293Q, canonical isoform): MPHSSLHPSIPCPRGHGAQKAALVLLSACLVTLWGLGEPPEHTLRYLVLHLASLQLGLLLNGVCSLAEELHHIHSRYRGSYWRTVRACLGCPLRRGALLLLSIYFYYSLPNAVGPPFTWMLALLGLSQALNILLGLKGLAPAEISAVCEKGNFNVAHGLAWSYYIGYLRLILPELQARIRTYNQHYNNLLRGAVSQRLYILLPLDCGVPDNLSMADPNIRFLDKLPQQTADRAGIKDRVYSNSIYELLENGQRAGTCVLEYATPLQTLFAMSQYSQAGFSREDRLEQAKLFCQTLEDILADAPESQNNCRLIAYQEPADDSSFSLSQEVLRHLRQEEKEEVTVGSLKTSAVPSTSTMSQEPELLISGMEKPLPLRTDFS
T2 sequence (Q12809 whole entry): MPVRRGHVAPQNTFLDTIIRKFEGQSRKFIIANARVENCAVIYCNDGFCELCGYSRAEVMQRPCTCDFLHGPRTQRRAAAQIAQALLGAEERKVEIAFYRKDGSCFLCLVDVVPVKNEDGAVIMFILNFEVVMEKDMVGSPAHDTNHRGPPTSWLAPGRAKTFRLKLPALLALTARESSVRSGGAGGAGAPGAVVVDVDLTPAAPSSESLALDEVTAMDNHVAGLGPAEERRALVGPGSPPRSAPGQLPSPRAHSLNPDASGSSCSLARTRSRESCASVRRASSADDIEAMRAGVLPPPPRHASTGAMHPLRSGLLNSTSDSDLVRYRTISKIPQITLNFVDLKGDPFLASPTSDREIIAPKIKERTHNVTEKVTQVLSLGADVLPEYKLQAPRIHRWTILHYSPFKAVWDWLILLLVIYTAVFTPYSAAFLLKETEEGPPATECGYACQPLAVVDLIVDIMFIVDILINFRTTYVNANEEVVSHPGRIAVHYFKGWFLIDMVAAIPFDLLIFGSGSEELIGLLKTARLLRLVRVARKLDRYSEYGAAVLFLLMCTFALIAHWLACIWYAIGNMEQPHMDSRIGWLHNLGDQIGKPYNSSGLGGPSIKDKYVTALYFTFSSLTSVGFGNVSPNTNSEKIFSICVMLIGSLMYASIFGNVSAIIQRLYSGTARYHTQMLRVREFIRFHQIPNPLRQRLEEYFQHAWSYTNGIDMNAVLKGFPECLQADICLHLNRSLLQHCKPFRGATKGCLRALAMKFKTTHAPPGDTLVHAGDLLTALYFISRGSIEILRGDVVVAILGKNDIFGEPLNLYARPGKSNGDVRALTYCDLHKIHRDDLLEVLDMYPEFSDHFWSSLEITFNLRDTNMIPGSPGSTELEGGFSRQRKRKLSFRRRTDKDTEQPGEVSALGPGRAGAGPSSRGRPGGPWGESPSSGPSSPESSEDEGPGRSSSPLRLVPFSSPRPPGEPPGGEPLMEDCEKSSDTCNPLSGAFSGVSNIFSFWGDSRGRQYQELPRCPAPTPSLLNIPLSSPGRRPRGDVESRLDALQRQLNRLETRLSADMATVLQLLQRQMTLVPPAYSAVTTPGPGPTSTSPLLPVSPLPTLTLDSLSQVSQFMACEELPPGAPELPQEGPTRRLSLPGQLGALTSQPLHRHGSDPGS

Row | Structure (SMILES) | Relative mRNA INFβ/GAPDH THP 1 [1] | IC50 (hERG channel) [nM]
1 | COc1cc(CN(Cc2cn3c4c(c(F)c(F)cc4c2=O)OCC3)[C@H]2CCCN(c3ccc(N)nc3)C2)ccn1 [Compound 66, (S)-6-(((1-(6-aminopyridin-3-yl)piperidin-3-yl)((2-methoxypyridin-4-yl)methyl)amino)methyl)-9,10-difluoro-2,3-dihydro-7H-[1,4]oxazino[2,3,4-ij]quinolin-7-one] | 7328.8 | 2720
2 | COCC1COc2c(F)c(F)cc3c(=O)c(CN(Cc4ccnc(OC)c4)[C@H]4CCCN(c5ccc(N)nc5)C4)cn1c23 (stereo partly drawn) [Compound 82, 6-((((S)-1-(6-aminopyridin-3-yl)piperidin-3-yl)((2-methoxypyridin-4-yl)methyl)amino)methyl)-9,10-difluoro-3-(methoxymethyl)-2,3-dihydro-7H-[1,4]oxazino[2,3,4-ij]quinolin-7-one] | 349.0 | 3140
